Measured values: doi:10.1101/2025.03.14.643404, “A Bivalent Molecular Glue Linking Lysine Acetyltransferases to Oncogene-induced Cell Death” (bioRxiv, 2025)
Entries after “also recorded” stand apart in the source; their conditions may differ.

What was measured:
SUDHL5 cells [1] = experiment: Annexin V staining of SUDHL5; type: cell-based, human
Protocol: 25,000 cells were plated in 200 μL of media in 96 well U-bottom plates and treated with compound. […] Centrifugation and washing was repeated once more. Cells were then resuspended in 50 μL cold binding buffer (10 mM HEPES pH 7.4, 140 mM NaCl, 2.5 mM CaCl2) and 2.5 μL FITC-Annexin-V (Biolegend 640922). A no-stain control was also included to draw gates. The plate was allowed to incubate for 15 minutes at room temperature, at which point 100 μL of 2.5% FBS in PBS was added to each well. The plate was gently agitated through shaking, and samples were analyzed by flow cytometry on a BD Accuri. At least 50k events were collected per sample.

p300 = target: T1, p300 (Homo sapiens, UniProt Q09472); experiment: Global proteome profiling in SUDHL5, p300 abundance; type: cell-based; conditions: SUDHL5, 10 nM, 24 hours
T1 construct: endogenous in cells; host or cells: SUDHL5
Protocol: SUDHL5 cells (6M cells in 6 mL RPMI-1640 media supplemented with 10% FBS and 1x pen-strep) were treated with 0.1% DMSO, 10 nM TCIP3, 10 nM Neg1, 10 nM Neg2, or 250 nM dCBP1 (1000x stocks in DMSO for final 0.1% DMSO concentration) in 3 biologically independent replicates. The cells were washed twice with TBS (50 mM Tris, pH 8.5, and 150 mM NaCl) and then stored at −80 °C until use.
Lysis was performed by first thermally denaturing the samples in residual wash buffer for 5 min at 95 °C. Fresh Lysis Buffer (8 M urea, 150 mM NaCl, and 100 mM HEPES, pH 8.0, in MS-grade water) was then added, and the lysates were homogenized using needle ultrasonication and then normalized to 30 μg of 2 mg/mL by diluting with Lysis Buffer via a Bradford protein concentration assay (Bio-Rad 5000006) in technical duplicates. […]
Samples were then desalted using SOLAμ SPE HRP Peptide Desalting columns (Thermo 60209–001) with a Positive Pressure Manifold and all MS-grade reagents. […] The samples were then reconstituted in 0.1% FA in water and then analyzed by LC-MS/MS (see below).
The reconstituted desalted peptides were then analyzed using a nanoElute 2 UHPLC (Bruker Daltonics, Bremen, Germany) coupled to a timsTOF HT (Bruker Daltonics, Bremen, Germany) via a CaptiveSpray nano-electrospray source. […]

SUDHL5 cells [2] = experiment: Cell viability, 72 h compound treatment (PrestoBlue), SUDHL5; type: cell-based, human; conditions: SUDHL5, 72 h
Protocol: Thirty thousand cells were seeded in 100 μl of media per well of a 96-well plate and treated with drug for the indicated times and doses. A resazurin-based indicator of cell health (PrestoBlue; P50200, Thermo Fisher) was added for 1.5 h at 37°C, at which point the fluorescence ratio at 560/590 nm was recorded (Tecan Spark). The background fluorescence was subtracted, and the signal was normalized to DMSO-treated cells. IC50 measurements on cell lines were calculated using at least three biological replicates (separate cell passages). Fit of dose–response curves to data and statistical analysis was performed using GraphPad PRISM using the four-parameter log(inhibitor) vs response function.

c-MYC mRNA = experiment: RT-qPCR of c-MYC transcripts in SUDHL5; type: cell-based, human; conditions: SUDHL5, 1 nM
Protocol: Cells were plated at 1M/mL and harvested in TRIsure (Bioline 38033). RNA was extracted using Direct-zol RNA MicroPrep columns (Zymo R2062) treated with DNAseI. cDNA was prepared (Meridian Bioscience BIO-65054) and used for qPCR (Meridian Bioscience BIO-94050) using an AppliedBiosystems QuantStudio 6Pro. Primer sequences were the following:
• c-MYC fwd: […]; • c-MYC rev: […]; • GAPDH fwd: […]; • GAPDH rev: […].

[3] = system: B and T cells isolated from primary tonsillar lymphocytes; experiment: Viability of primary tonsillar lymphocytes, 72 h; type: cell-based, human; conditions: primary tonsillar lymphocytes of two donors, compared with SUDHL5

T1 sequence (Q09472 2-2414 limits assumed, other chains not shown): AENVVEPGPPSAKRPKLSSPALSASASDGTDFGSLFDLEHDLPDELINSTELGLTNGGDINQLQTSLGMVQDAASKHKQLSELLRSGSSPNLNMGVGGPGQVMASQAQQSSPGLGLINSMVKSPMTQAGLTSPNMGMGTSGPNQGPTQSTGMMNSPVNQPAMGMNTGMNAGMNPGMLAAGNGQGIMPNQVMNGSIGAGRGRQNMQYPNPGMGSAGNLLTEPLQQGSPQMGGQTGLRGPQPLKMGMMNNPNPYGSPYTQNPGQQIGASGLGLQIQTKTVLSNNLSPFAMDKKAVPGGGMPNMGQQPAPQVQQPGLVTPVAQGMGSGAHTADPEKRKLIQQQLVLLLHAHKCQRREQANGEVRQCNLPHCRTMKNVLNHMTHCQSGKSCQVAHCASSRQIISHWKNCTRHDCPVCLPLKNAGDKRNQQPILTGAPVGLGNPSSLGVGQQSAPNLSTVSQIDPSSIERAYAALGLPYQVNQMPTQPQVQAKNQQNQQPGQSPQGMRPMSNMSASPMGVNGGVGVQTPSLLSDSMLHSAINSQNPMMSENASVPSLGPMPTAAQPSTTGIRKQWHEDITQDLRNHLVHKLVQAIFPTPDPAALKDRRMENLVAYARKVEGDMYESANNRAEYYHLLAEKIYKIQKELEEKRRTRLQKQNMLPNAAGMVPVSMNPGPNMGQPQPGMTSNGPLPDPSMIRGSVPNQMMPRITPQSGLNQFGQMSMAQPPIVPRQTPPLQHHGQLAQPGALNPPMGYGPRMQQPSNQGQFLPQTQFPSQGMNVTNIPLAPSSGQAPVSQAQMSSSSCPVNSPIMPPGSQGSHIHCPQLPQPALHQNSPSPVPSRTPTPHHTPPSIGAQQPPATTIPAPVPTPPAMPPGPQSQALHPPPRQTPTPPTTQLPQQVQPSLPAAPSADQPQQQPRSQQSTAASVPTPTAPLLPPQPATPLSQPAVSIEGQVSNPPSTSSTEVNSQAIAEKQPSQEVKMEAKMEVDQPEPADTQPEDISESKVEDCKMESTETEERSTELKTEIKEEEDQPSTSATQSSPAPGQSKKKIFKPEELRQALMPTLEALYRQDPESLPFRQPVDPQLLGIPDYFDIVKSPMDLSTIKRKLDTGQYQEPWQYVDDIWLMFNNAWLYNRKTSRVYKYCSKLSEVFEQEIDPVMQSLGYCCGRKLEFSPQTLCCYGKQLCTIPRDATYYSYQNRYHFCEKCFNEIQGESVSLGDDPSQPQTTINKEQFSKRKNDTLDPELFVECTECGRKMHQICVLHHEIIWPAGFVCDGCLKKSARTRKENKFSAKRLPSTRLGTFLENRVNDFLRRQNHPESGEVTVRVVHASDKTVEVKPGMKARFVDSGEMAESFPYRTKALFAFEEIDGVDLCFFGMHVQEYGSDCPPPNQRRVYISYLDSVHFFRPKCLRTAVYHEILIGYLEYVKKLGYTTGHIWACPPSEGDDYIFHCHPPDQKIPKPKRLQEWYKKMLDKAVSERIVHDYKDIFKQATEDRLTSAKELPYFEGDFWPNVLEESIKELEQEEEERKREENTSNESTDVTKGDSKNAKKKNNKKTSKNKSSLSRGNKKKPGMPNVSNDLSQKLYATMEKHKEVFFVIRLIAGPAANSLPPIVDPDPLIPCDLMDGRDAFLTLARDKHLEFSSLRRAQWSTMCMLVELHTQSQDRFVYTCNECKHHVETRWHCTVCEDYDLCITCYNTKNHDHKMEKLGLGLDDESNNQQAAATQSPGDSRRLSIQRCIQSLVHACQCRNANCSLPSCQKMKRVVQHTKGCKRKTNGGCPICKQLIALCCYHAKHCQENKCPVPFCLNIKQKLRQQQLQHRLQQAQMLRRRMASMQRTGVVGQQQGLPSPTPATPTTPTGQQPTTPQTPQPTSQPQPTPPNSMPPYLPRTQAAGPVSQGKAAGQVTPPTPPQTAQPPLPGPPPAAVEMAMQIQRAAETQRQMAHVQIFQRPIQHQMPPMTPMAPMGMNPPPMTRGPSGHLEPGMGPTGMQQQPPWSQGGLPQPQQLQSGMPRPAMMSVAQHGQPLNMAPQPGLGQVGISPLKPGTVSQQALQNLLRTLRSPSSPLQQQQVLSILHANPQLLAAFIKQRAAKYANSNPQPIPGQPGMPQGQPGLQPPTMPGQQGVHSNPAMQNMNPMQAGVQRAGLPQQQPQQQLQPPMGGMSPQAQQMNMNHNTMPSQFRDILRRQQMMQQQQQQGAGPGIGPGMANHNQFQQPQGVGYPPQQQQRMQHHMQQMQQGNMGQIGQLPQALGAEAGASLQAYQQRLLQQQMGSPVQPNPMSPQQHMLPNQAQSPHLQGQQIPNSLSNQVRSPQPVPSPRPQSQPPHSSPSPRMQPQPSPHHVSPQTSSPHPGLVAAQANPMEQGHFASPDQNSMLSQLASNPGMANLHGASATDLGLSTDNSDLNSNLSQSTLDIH

CNC(=O)COc1cc2cc(Nc3nc(N4CCC(C(=O)N5CCN(CCC(=O)N6CCC(n7nc(N8CCCc9cc(-c%10cnn(C)c%10)c(C(F)F)cc98)c8c7CCN(C(=O)NC)C8)CC6)CC5)CC4)ncc3Cl)cc(OC)c2n(C)c1=O [TCIP3]
Annexin V-positive cells, times higher than DMSO (SUDHL5 cells [1]; SUDHL5, 10 nM, 72 hours): 2.9 times | Annexin V-positive cells, times higher than NEG1 (SUDHL5 cells [1]; SUDHL5, 10 nM, 72 hours): 2.3 times | Annexin V-positive cells, times higher than NEG2 (SUDHL5 cells [1]; SUDHL5, 10 nM, 72 hours): 2.5 times | cells stained positive for Annexin V (SUDHL5 cells [1]; SUDHL5, 10 nM, 72 hours): 82% | induction of apoptosis (SUDHL5 cells [1]; SUDHL5, 24, 48, 72 hours): significant increases in Annexin V-positive cells began after 48 hours | p300 protein abundance log2(fold change) (p300): 0.37 | IC50 (SUDHL5 cells [2]; Homo sapiens, SU-DHL-5, read-out: IC50 cell viability / antiproliferation): 0.8 nM | IC50 cell viability / antiproliferation (SUDHL5 cells [2]): sub-nanomolar | times more cytotoxic than either NEG1 or NEG2 (SUDHL5 cells [2]): over 1,000 times | times more potent than A-485 (SUDHL5 cells [2]): 238 times | times more potent than dCBP-1 (SUDHL5 cells [2]): 12 times | t1/2 of c-MYC mRNA decrease (c-MYC mRNA): 33 min | cytotoxicity [3]: substantially reduced cytotoxicity; also recorded: without exhibiting toxicity
